Data published in ChEMBL document CHEMBL3885861, “Open TG-GATES”.

Species: Rattus norvegicus
Assay: Open TG-GATES - Regimen: Single
Format: toxicity, organism-based, Sprague-Dawley
Parameters: regimen Single, gender Male, age 6 weeks
Settings: in vivo, po, route gavage; for APTT / Bas / Eos / Fbg / Hb / Ht / Lym / MCH / MCHC / MCV / Mono / Neu / PT / Plat / RBC / Ret / WBC: tissue Blood; for KIDNEY_L / KIDNEY_R / KIDNEY_TOTAL: tissue Kidney; for LIVER: tissue Liver; for A/G / ALP / ALT / AST / BUN / CRE / Ca / Cl / DBIL / GLC / IP / K / LDH / Na / PL / RALB / TBIL / TC / TG / TP / gamma-GTP: tissue Plasma
[1] = 1000 mg/kg, 3 h, dose level Middle
[2] = 1000 mg/kg, 6 h, dose level Middle
[3] = 1000 mg/kg, 9 h, dose level Middle
[4] = 1000 mg/kg, 24 h, dose level Middle
[5] = 2000 mg/kg, 3 h, dose level High
[6] = 2000 mg/kg, 6 h, dose level High
[7] = 2000 mg/kg, 9 h, dose level High
[8] = 2000 mg/kg, 24 h, dose level High

## CCOc1ccc(NC(=O)CC(C)O)cc1 (centres undefined) [BUCETIN]
[1]
  TERMINAL_BW: 211.2 g
  APTT: 14.7 s
  Bas: 0%
  Eos: 1%
  Fbg: 303 mg/dL
  Hb: 13 g/dL
  Ht: 38.6%
  Lym: 78.4%
  MCH: 20.6 pg
  MCHC: 33.7%
  MCV: 61.2 fL
  Mono: 2%
  Neu: 18.2%
  PT: 13.5 s
  Plat: 123 x10_4/uL
  RBC: 630.8 x10_4/ul
  Ret: 7.9%
  WBC: 70.9 x10_2/uL
  KIDNEY_L: 0.9 g
  KIDNEY_R: 1 g
  KIDNEY_TOTAL: 1.9 g
  LIVER: 9.1 g
  A/G: 0.9
  ALP: 1363.2 IU/L
  ALT: 33 IU/L
  AST: 65.6 IU/L
  BUN: 8.4 mg/dL
  CRE: 0.1 mg/dL
  Ca: 10.5 mg/dL
  Cl: 104.6 meq/L
  DBIL: 0.03 mg/dL
  GLC: 182.2 mg/dL
  IP: 9.1 mg/dL
  K: 4.2 meq/L
  LDH: 66.6 IU/L
  Na: 141.4 meq/L
  PL: 137.4 mg/dL
  RALB: 2.5 g/dL
  TBIL: 0.05 mg/dL
  TC: 73.6 mg/dL
  TG: 51.6 mg/dL
  TP: 5.2 g/dL
  gamma-GTP: 1.4 IU/L
[2]
  TERMINAL_BW: 208.9 g
  APTT: 19.8 s
  Bas: 0%
  Eos: 1%
  Fbg: 317 mg/dL
  Hb: 13.3 g/dL
  Ht: 39.5%
  Lym: 77%
  MCH: 20.9 pg
  MCHC: 33.6%
  MCV: 62.1 fL
  Mono: 2.6%
  Neu: 19%
  PT: 13.7 s
  Plat: 118.7 x10_4/uL
  RBC: 636.6 x10_4/ul
  Ret: 7.8%
  WBC: 61.8 x10_2/uL
  KIDNEY_L: 0.9 g
  KIDNEY_R: 0.9 g
  KIDNEY_TOTAL: 1.8 g
  LIVER: 8.3 g
  A/G: 0.9
  ALP: 1231.6 IU/L
  ALT: 29 IU/L
  AST: 64.4 IU/L
  BUN: 8.6 mg/dL
  CRE: 0.2 mg/dL
  Ca: 10.7 mg/dL
  Cl: 105.4 meq/L
  DBIL: 0.036 mg/dL
  GLC: 186.8 mg/dL
  IP: 10.3 mg/dL
  K: 4.2 meq/L
  LDH: 57.8 IU/L
  Na: 142 meq/L
  PL: 139 mg/dL
  RALB: 2.6 g/dL
  TBIL: 0.062 mg/dL
  TC: 82.2 mg/dL
  TG: 28.4 mg/dL
  TP: 5.5 g/dL
  gamma-GTP: 1 IU/L
[3]
  TERMINAL_BW: 204.6 g
  APTT: 16.1 s
  Bas: 0%
  Eos: 0.6%
  Fbg: 311.6 mg/dL
  Hb: 13.6 g/dL
  Ht: 40.3%
  Lym: 78.8%
  MCH: 21.1 pg
  MCHC: 33.8%
  MCV: 62.4 fL
  Mono: 2.2%
  Neu: 17.8%
  PT: 14.2 s
  Plat: 125.3 x10_4/uL
  RBC: 646.4 x10_4/ul
  Ret: 8.3%
  WBC: 48.8 x10_2/uL
  KIDNEY_L: 0.9 g
  KIDNEY_R: 0.9 g
  KIDNEY_TOTAL: 1.8 g
  LIVER: 8.2 g
  A/G: 0.9
  ALP: 1308.4 IU/L
  ALT: 29.6 IU/L
  AST: 62.6 IU/L
  BUN: 7.6 mg/dL
  CRE: 0.1 mg/dL
  Ca: 10.6 mg/dL
  Cl: 106 meq/L
  DBIL: 0.04 mg/dL
  GLC: 196.6 mg/dL
  IP: 9.8 mg/dL
  K: 4 meq/L
  LDH: 56.2 IU/L
  Na: 142.4 meq/L
  PL: 130.6 mg/dL
  RALB: 2.6 g/dL
  TBIL: 0.054 mg/dL
  TC: 71.6 mg/dL
  TG: 26.2 mg/dL
  TP: 5.5 g/dL
  gamma-GTP: 1 IU/L
[4]
  TERMINAL_BW: 208.1 g
  APTT: 23.5 s
  Bas: 0%
  Eos: 1%
  Fbg: 268.6 mg/dL
  Hb: 13.4 g/dL
  Ht: 40.5%
  Lym: 77.6%
  MCH: 20.7 pg
  MCHC: 33.2%
  MCV: 62.3 fL
  Mono: 3%
  Neu: 18%
  PT: 15.1 s
  Plat: 125 x10_4/uL
  RBC: 650.2 x10_4/ul
  Ret: 7.5%
  WBC: 77.3 x10_2/uL
  KIDNEY_L: 1 g
  KIDNEY_R: 1 g
  KIDNEY_TOTAL: 1.9 g
  LIVER: 8.9 g
  A/G: 0.9
  ALP: 1549 IU/L
  ALT: 48 IU/L
  AST: 92.2 IU/L
  BUN: 16 mg/dL
  CRE: 0.2 mg/dL
  Ca: 10.8 mg/dL
  Cl: 106.8 meq/L
  DBIL: 0.03 mg/dL
  GLC: 169.6 mg/dL
  IP: 8.1 mg/dL
  K: 4.2 meq/L
  LDH: 93.8 IU/L
  Na: 144.2 meq/L
  PL: 154 mg/dL
  RALB: 2.6 g/dL
  TBIL: 0.07 mg/dL
  TC: 86.4 mg/dL
  TG: 66.2 mg/dL
  TP: 5.6 g/dL
  gamma-GTP: 1 IU/L
[5]
  TERMINAL_BW: 211.9 g
  APTT: 16.2 s
  Bas: 0%
  Eos: 1%
  Fbg: 308.4 mg/dL
  Hb: 13.1 g/dL
  Ht: 38.8%
  Lym: 74.8%
  MCH: 20.8 pg
  MCHC: 33.8%
  MCV: 61.7 fL
  Mono: 2.8%
  Neu: 21%
  PT: 13.7 s
  Plat: 123.8 x10_4/uL
  RBC: 628.8 x10_4/ul
  Ret: 8.2%
  WBC: 70.6 x10_2/uL
  KIDNEY_L: 0.9 g
  KIDNEY_R: 0.9 g
  KIDNEY_TOTAL: 1.9 g
  LIVER: 9.3 g
  A/G: 0.9
  ALP: 1367.8 IU/L
  ALT: 30.4 IU/L
  AST: 66 IU/L
  BUN: 9.2 mg/dL
  CRE: 0.1 mg/dL
  Ca: 10.8 mg/dL
  Cl: 103.8 meq/L
  DBIL: 0.032 mg/dL
  GLC: 198.4 mg/dL
  IP: 9.5 mg/dL
  K: 4.1 meq/L
  LDH: 67 IU/L
  Na: 141 meq/L
  PL: 148 mg/dL
  RALB: 2.5 g/dL
  TBIL: 0.054 mg/dL
  TC: 83.4 mg/dL
  TG: 52.2 mg/dL
  TP: 5.4 g/dL
  gamma-GTP: 1.2 IU/L
[6]
  TERMINAL_BW: 209.3 g
  APTT: 21.1 s
  Bas: 0.2%
  Eos: 0.4%
  Fbg: 315.2 mg/dL
  Hb: 13.7 g/dL
  Ht: 40.6%
  Lym: 79%
  MCH: 20.7 pg
  MCHC: 33.7%
  MCV: 61.2 fL
  Mono: 2.2%
  Neu: 17.8%
  PT: 13.5 s
  Plat: 124.4 x10_4/uL
  RBC: 662.8 x10_4/ul
  Ret: 8.2%
  WBC: 64.5 x10_2/uL
  KIDNEY_L: 0.9 g
  KIDNEY_R: 0.9 g
  KIDNEY_TOTAL: 1.9 g
  LIVER: 8.5 g
  A/G: 0.9
  ALP: 1336.4 IU/L
  ALT: 36.2 IU/L
  AST: 68.6 IU/L
  BUN: 8.4 mg/dL
  CRE: 0.1 mg/dL
  Ca: 10.6 mg/dL
  Cl: 102.2 meq/L
  DBIL: 0.032 mg/dL
  GLC: 201.8 mg/dL
  IP: 10.1 mg/dL
  K: 3.7 meq/L
  LDH: 79.4 IU/L
  Na: 141.2 meq/L
  PL: 147.4 mg/dL
  RALB: 2.6 g/dL
  TBIL: 0.048 mg/dL
  TC: 85.2 mg/dL
  TG: 27.6 mg/dL
  TP: 5.5 g/dL
  gamma-GTP: 1.4 IU/L
[7]
  TERMINAL_BW: 208.4 g
  APTT: 18.5 s
  Bas: 0%
  Eos: 0.8%
  Fbg: 314.8 mg/dL
  Hb: 13.3 g/dL
  Ht: 39%
  Lym: 80.6%
  MCH: 20.8 pg
  MCHC: 34%
  MCV: 61.1 fL
  Mono: 2.2%
  Neu: 16.2%
  PT: 14.1 s
  Plat: 119.7 x10_4/uL
  RBC: 639.8 x10_4/ul
  Ret: 8.3%
  WBC: 54.6 x10_2/uL
  KIDNEY_L: 0.9 g
  KIDNEY_R: 0.9 g
  KIDNEY_TOTAL: 1.9 g
  LIVER: 8.2 g
  A/G: 0.9
  ALP: 1215 IU/L
  ALT: 28.8 IU/L
  AST: 62.8 IU/L
  BUN: 8.2 mg/dL
  CRE: 0.1 mg/dL
  Ca: 10.5 mg/dL
  Cl: 103.4 meq/L
  DBIL: 0.042 mg/dL
  GLC: 199.2 mg/dL
  IP: 9.8 mg/dL
  K: 4.1 meq/L
  LDH: 64.2 IU/L
  Na: 140.6 meq/L
  PL: 150.6 mg/dL
  RALB: 2.6 g/dL
  TBIL: 0.052 mg/dL
  TC: 82.6 mg/dL
  TG: 43.6 mg/dL
  TP: 5.5 g/dL
  gamma-GTP: 1 IU/L
[8]
  TERMINAL_BW: 202.1 g
  APTT: 17.9 s
  Bas: 0.4%
  Eos: 0.8%
  Fbg: 294.2 mg/dL
  Hb: 14 g/dL
  Ht: 41.4%
  Lym: 79.2%
  MCH: 20.9 pg
  MCHC: 33.8%
  MCV: 61.7 fL
  Mono: 3%
  Neu: 16%
  PT: 14.4 s
  Plat: 128.9 x10_4/uL
  RBC: 670 x10_4/ul
  Ret: 7.1%
  WBC: 75.9 x10_2/uL
  KIDNEY_L: 1 g
  KIDNEY_R: 0.9 g
  KIDNEY_TOTAL: 1.9 g
  LIVER: 8.4 g
  A/G: 0.9
  ALP: 1381.2 IU/L
  ALT: 46.2 IU/L
  AST: 96.4 IU/L
  BUN: 11.8 mg/dL
  CRE: 0.2 mg/dL
  Ca: 10.9 mg/dL
  Cl: 104.8 meq/L
  DBIL: 0.078 mg/dL
  GLC: 175.2 mg/dL
  IP: 9.7 mg/dL
  K: 4.1 meq/L
  LDH: 102.4 IU/L
  Na: 142.4 meq/L
  PL: 166.6 mg/dL
  RALB: 2.7 g/dL
  TBIL: 0.078 mg/dL
  TC: 97.6 mg/dL
  TG: 57 mg/dL
  TP: 5.8 g/dL
  gamma-GTP: 1 IU/L
